# Data published in PubChem BioAssay AID192 (DTP/NCI, 2004).
# Where “and” joins values, the source holds several entries; their conditions need not be identical. Identical values can stand only once. Toxic doses and inconclusive results are not listed.
# Tested on: BDF1 mice, B16 melanoma ip, median survival T/C
# Test: NCI In Vivo Anticancer Drug Screen. Data for tumor model B16 Melanoma (intraperitoneal) in B6D2F1 (BDF1) mice
# Details: endpoint: median survival time, higher = longer survival
# How it was run: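 Tumor-bearing mice received test compound or vehicle. Survival or tumor size was then measured in both groups. The treated-group figure was divided by the control-group figure.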
# [1] = dose: 50.0 mg/kg/injection, schedule: Q01DX009 (ip), vehicle: saline
# [2] = dose: 100.0 mg/kg/injection, schedule: Q01DX009 (ip), vehicle: saline
# [3] = dose: 25.0 mg/kg/injection, schedule: Q01DX009 (ip), vehicle: saline
# [4] = dose: 100.0 mg/kg/injection, schedule: Q01DX009 (ip), vehicle: Klucel (hydroxypropylcellulose) (HPC)
# [5] = dose: 200.0 mg/kg/injection, schedule: Q01DX009 (ip), vehicle: Klucel (hydroxypropylcellulose) (HPC)
# [6] = dose: 100.0 mg/kg/injection, schedule: Q01DX009 (ip), vehicle: other
# [7] = dose: 200.0 mg/kg/injection, schedule: Q01DX009 (ip), vehicle: other
smiles,measurement,setting,value
O=NN(CCCl)C(=O)NCCCl,T/C,"dose: 0.25 mg/kg/injection, schedule: Q01DX009 (ip), vehicle: saline with Tween-80",102 % of control
same,T/C,"dose: 0.5 mg/kg/injection, schedule: Q01DX009 (ip), vehicle: saline + alcohol",105 % of control and 110 % of control
same,T/C,"dose: 0.5 mg/kg/injection, schedule: Q01DX009 (ip), vehicle: saline with Tween-80",109 % of control
same,T/C,"dose: 1.0 mg/kg/injection, schedule: Q01DX009 (ip), vehicle: saline + alcohol",108 % of control and 115 % of control
same,T/C,"dose: 1.0 mg/kg/injection, schedule: Q01DX009 (ip), vehicle: saline with Tween-80",110 % of control and 113 % of control (2×)
same,T/C,"dose: 1.5 mg/kg/injection, schedule: Q01DX009 (ip), vehicle: alcohol",113 % of control and 116 % of control
same,T/C,"dose: 1.5 mg/kg/injection, schedule: Q01DX009 (ip), vehicle: other",95 % of control and 104 % of control
same,T/C,"dose: 1.87 mg/kg/injection, schedule: Q01DX009 (ip), vehicle: saline",115 % of control
same,T/C,"dose: 1.9 mg/kg/injection, schedule: Q01DX001 (ip), vehicle: saline",115 % of control
same,T/C,"dose: 2.0 mg/kg/injection, schedule: Q01DX009 (ip), vehicle: saline + alcohol",109 % of control and 118 % of control
same,T/C,"dose: 2.0 mg/kg/injection, schedule: Q01DX009 (ip), vehicle: saline with Tween-80",109 % of control and 115 % of control and 122 % of control
same,T/C,"dose: 2.0 mg/kg/injection, schedule: Q04DX003 (ip), vehicle: saline + alcohol",118 % of control
same,T/C,"dose: 3.0 mg/kg/injection, schedule: Q01DX009 (ip), vehicle: other",105 % of control and 114 % of control
same,T/C,"dose: 3.75 mg/kg/injection, schedule: Q01DX001 (ip), vehicle: saline",115 % of control
same,T/C,"dose: 4.0 mg/kg/injection, schedule: Q01DX009 (ip), vehicle: saline with Tween-80",152 % of control
same,T/C,"dose: 5.0 mg/kg/injection, schedule: Q01DX001 (ip), vehicle: saline + alcohol",111 % of control and 122 % of control
same,T/C,"dose: 5.0 mg/kg/injection, schedule: Q01DX009 (ip), vehicle: other",190 % of control
same,T/C,"dose: 5.0 mg/kg/injection, schedule: Q04DX003 (ip), vehicle: saline + alcohol",113 % of control and 115 % of control
same,T/C,"dose: 6.0 mg/kg/injection, schedule: Q01DX009 (ip), vehicle: alcohol",160 % of control and 188 % of control
same,T/C,"dose: 6.0 mg/kg/injection, schedule: Q01DX009 (ip), vehicle: other",171 % of control and 179 % of control
same,T/C,"dose: 7.5 mg/kg/injection, schedule: Q01DX001 (ip), vehicle: saline",119 % of control
same,T/C,"dose: 7.5 mg/kg/injection, schedule: Q01DX009 (ip), vehicle: saline",192 % of control
same,T/C,"dose: 8.0 mg/kg/injection, schedule: Q01DX001 (ip), vehicle: saline + alcohol",107 % of control
same,T/C,"dose: 8.0 mg/kg/injection, schedule: Q01DX009 (ip), vehicle: saline + alcohol",207 % of control and 221 % of control
same,T/C,"dose: 8.0 mg/kg/injection, schedule: Q01DX009 (ip), vehicle: saline with Tween-80",165 % of control and 168 % of control and 183 % of control
same,T/C,"dose: 8.0 mg/kg/injection, schedule: Q04DX003 (ip), vehicle: saline + alcohol",111 % of control
same,T/C,"dose: 10.0 mg/kg/injection, schedule: Q01DX001 (ip), vehicle: saline",121 % of control
same,T/C,"dose: 12.0 mg/kg/injection, schedule: Q01DX009 (ip), vehicle: other",153 % of control
same,T/C,"dose: 15.0 mg/kg/injection, schedule: Q01DX009 (ip), vehicle: saline",200 % of control
same,T/C,"dose: 16.0 mg/kg/injection, schedule: Q01DX009 (ip), vehicle: saline + alcohol",53 % of control and 65 % of control
same,T/C,"dose: 16.0 mg/kg/injection, schedule: Q04DX003 (ip), vehicle: saline + alcohol",186 % of control
same,T/C,"dose: 20.0 mg/kg/injection, schedule: Q01DX001 (ip), vehicle: saline",154 % of control
same,T/C,"dose: 20.0 mg/kg/injection, schedule: Q04DX003 (ip), vehicle: saline + alcohol",157 % of control and 210 % of control and 229 % of control
same,T/C,"dose: 30.0 mg/kg/injection, schedule: Q01DX001 (ip), vehicle: saline + alcohol",154 % of control
same,T/C,"dose: 30.0 mg/kg/injection, schedule: Q01DX001 (ip), vehicle: saline",189 % of control
same,T/C,"dose: 32.0 mg/kg/injection, schedule: Q01DX009 (ip), vehicle: saline + alcohol",40 % of control and 44 % of control
same,T/C,"dose: 32.0 mg/kg/injection, schedule: Q04DX003 (ip), vehicle: saline + alcohol",248 % of control
same,T/C,"dose: 40.0 mg/kg/injection, schedule: Q01DX001 (ip), vehicle: saline",207 % of control
same,T/C,"dose: 40.0 mg/kg/injection, schedule: Q04DX003 (ip), vehicle: saline + alcohol",62 % of control and 80 % of control
same,T/C,"dose: 60.0 mg/kg/injection, schedule: Q01DX001 (ip), vehicle: saline",106 % of control
same,T/C,"dose: 64.0 mg/kg/injection, schedule: Q01DX001 (ip), vehicle: saline + alcohol",42 % of control
same,T/C,"dose: 64.0 mg/kg/injection, schedule: Q01DX009 (ip), vehicle: saline + alcohol",28 % of control and 30 % of control
same,T/C,"dose: 64.0 mg/kg/injection, schedule: Q04DX003 (ip), vehicle: saline + alcohol",43 % of control
same,T/C,"dose: 128.0 mg/kg/injection, schedule: Q04DX003 (ip), vehicle: saline + alcohol",37 % of control
same,T/C,"dose: 256.0 mg/kg/injection, schedule: Q04DX003 (ip), vehicle: saline + alcohol",20 % of control
NC(=O)c1ncc[nH]c1=O,T/C,[1],118 % of control
same,T/C,[2],124 % of control
CC1CNC(=O)O1 (stereo not drawn),T/C,[3],104 % of control
same,T/C,[1],100 % of control
same,T/C,[2],100 % of control
same,T/C,"dose: 200.0 mg/kg/injection, schedule: Q01DX009 (ip), vehicle: saline",92 % of control
same,T/C,"dose: 400.0 mg/kg/injection, schedule: Q01DX009 (ip), vehicle: saline",97 % of control
O=C(Nc1ccc(Cl)cc1)Nc1ccccc1F,T/C,"dose: 100.0 mg/kg/injection, schedule: Q01DX009 (ip), vehicle: saline with Tween-80",89 % of control
same,T/C,"dose: 200.0 mg/kg/injection, schedule: Q01DX009 (ip), vehicle: saline with Tween-80",86 % of control
CS(C)=O,T/C,"dose: 1:200.0 dilution, schedule: Q03HX088 (ip), vehicle: saline",89 % of control
same,T/C,"dose: 1:400.0 dilution, schedule: Q03HX088 (ip), vehicle: saline",89 % of control
same,T/C,"dose: 1.5 grams/kg/injection, schedule: Q01DX009 (ip), vehicle: saline",96 % of control and 101 % of control
same,T/C,"dose: 3.0 grams/kg/injection, schedule: Q01DX009 (ip), vehicle: saline",106 % of control and 108 % of control
same,T/C,"dose: 6.0 grams/kg/injection, schedule: Q01DX009 (ip), vehicle: saline",97 % of control
S=C(Nc1ccccn1)Nc1ccccn1,T/C,"dose: 25.0 mg/kg/injection, schedule: Q01DX009 (ip), vehicle: Klucel (hydroxypropylcellulose) (HPC)",97 % of control
same,T/C,"dose: 50.0 mg/kg/injection, schedule: Q01DX009 (ip), vehicle: Klucel (hydroxypropylcellulose) (HPC)",104 % of control
same,T/C,[4],111 % of control
Nc1ccc(C(=O)Oc2ccc([N+](=O)[O-])cc2)c(O)c1,T/C,[4],87 % of control
same,T/C,[5],97 % of control
CN=C1CN(O)C(c2ccccc2)=c2cc(Cl)ccc2=N1,T/C,"dose: 3.12 mg/kg/injection, schedule: Q01DX009 (ip), vehicle: saline",115 % of control
same,T/C,"dose: 6.25 mg/kg/injection, schedule: Q01DX009 (ip), vehicle: saline",101 % of control and 114 % of control
same,T/C,"dose: 12.5 mg/kg/injection, schedule: Q01DX009 (ip), vehicle: saline",92 % of control and 94 % of control and 101 % of control
same,T/C,[3],100 % of control and 101 % of control
same,T/C,[1],114 % of control and 117 % of control
same,T/C,[2],100 % of control and 102 % of control
OCc1ccccc1NCc1ccccc1,T/C,[6],91 % of control and 109 % of control
same,T/C,[7],100 % of control
same,T/C,"dose: 400.0 mg/kg/injection, schedule: Q01DX009 (ip), vehicle: other",95 % of control and 98 % of control
CCOC(=O)C(=CNc1cccc(N)n1)C(=O)OCC,T/C,[4],107 % of control
same,T/C,[5],111 % of control
same,T/C,"dose: 400.0 mg/kg/injection, schedule: Q01DX009 (ip), vehicle: Klucel (hydroxypropylcellulose) (HPC)",94 % of control
CCCCNC(=S)S,T/C,[6],90 % of control
same,T/C,[7],94 % of control
CCCCC(C=O)(C=C=C(C)C)CC (stereo not drawn),T/C,"dose: 100.0 mg/kg/injection, schedule: Q04DX003 (ip), vehicle: saline with Tween-80",88 % of control
same,T/C,"dose: 200.0 mg/kg/injection, schedule: Q04DX003 (ip), vehicle: saline with Tween-80",95 % of control
O=C(NO)c1ccncc1,T/C,"dose: 25.0 mg/kg/injection, schedule: Q01DX009 (ip), vehicle: water",96 % of control
same,T/C,"dose: 50.0 mg/kg/injection, schedule: Q01DX009 (ip), vehicle: water",106 % of control and 111 % of control
same,T/C,"dose: 100.0 mg/kg/injection, schedule: Q01DX009 (ip), vehicle: water",93 % of control and 105 % of control
same,T/C,"dose: 200.0 mg/kg/injection, schedule: Q01DX009 (ip), vehicle: water",100 % of control
same,T/C,"dose: 300.0 mg/kg/injection, schedule: Q01DX009 (ip), vehicle: water",93 % of control
same,T/C,"dose: 400.0 mg/kg/injection, schedule: Q01DX009 (ip), vehicle: water",100 % of control
same,T/C,"dose: 600.0 mg/kg/injection, schedule: Q01DX009 (ip), vehicle: water",105 % of control and 107 % of control
same,T/C,"dose: 700.0 mg/kg/injection, schedule: Q01DX009 (ip), vehicle: water",100 % of control
